Measured values: patent US20250353891A1 (MEDIMMUNE LIMITED, priority 2022, published 2025)
Starred links: 1 amine or outer side, 2 acyl side, 3 side chain; linkers in the order of their positions; H or OH if unused. Non-standard residues stand in square brackets, D forms with d. Residues, ends and D or L forms follow the SMILES beside them. Groups on a side chain read outwards from the residue. *: point of attachment. C20 diacid = O=C(O)CCCCCCCCCCCCCCCCCCC(=O)*; C18 diacid = O=C(O)CCCCCCCCCCCCCCCCC(=O)*; γGlu = O=C(O)[C@H](CCC(=O)[*:2])N[*:1]; αMeF = C[C@](N)(Cc1ccccc1)C(=O)O; AEEA = NCCOCCOCC(=O)O; Aib = CC(C)(N)C(=O)O

Columns and labels:
[1] = target: human GLP-1 receptor (hGLP-1R) (Homo sapiens, UniProt P43220); test: cAMP production (HTRF) in CHO cells expressing hGLP-1R; assay type: cell-based; set-up: expressed in transfected cells; details: for EC50: Table 7, peptides modified at position 20, cAMP in CHO hGLP-1R cells, geometric mean, read-out: hGLP-1R EC50; for % Relative Potency Ratio: Table 7, % GLP-1R activity relative to GLP-1 / % GlucR activity relative to glucagon
human GLP-1 receptor (hGLP-1R), sequence (P43220 24-463): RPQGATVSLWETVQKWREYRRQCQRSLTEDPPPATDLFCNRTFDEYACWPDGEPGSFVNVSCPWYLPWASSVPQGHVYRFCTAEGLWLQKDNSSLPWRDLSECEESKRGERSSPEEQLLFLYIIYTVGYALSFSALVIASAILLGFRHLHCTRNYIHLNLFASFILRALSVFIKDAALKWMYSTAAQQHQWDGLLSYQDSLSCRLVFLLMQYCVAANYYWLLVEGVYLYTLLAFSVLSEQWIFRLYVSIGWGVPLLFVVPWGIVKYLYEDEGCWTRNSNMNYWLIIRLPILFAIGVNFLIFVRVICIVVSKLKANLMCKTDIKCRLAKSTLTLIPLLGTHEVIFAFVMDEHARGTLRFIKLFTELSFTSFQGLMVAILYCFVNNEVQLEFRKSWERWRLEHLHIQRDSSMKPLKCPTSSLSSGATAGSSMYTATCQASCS
Outline: (§1)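 Potency values represent EC50 from 4-parameter logistic curves of HTRF % Delta F signal. Receptor-expressing CHO cells (hGCGR 2×10^5 cells/mL, hGLP-1R 1×10^5 cells/mL) were exposed for 30 min at room temperature before two-step cAMP detection.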

[2] = target: human glucagon receptor (hGCGR) (Homo sapiens, UniProt P47871); test: cAMP production (HTRF) in CHO cells expressing hGCGR; assay type: cell-based; set-up: expressed in transfected cells; details: Table 7, peptides modified at position 20; cAMP in CHO hGCGR cells; geometric mean; read-out: hGluc-R EC50
human glucagon receptor (hGCGR), sequence (P47871 26-477): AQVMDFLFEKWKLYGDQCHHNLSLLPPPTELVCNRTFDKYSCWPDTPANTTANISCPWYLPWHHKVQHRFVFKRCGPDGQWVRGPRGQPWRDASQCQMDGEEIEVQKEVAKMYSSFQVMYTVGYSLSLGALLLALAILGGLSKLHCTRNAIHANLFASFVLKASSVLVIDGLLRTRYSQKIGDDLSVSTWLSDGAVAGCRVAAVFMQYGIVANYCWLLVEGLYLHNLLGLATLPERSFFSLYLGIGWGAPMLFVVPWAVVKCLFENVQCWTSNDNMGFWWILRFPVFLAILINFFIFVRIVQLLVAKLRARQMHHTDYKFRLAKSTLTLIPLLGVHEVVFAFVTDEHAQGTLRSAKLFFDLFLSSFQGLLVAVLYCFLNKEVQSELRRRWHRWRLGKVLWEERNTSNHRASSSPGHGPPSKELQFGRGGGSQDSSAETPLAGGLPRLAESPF
Outline: as §1

Row | EC50 [1] | % Relative Potency Ratio [1] | EC50 [2] | Compound
1 | 0.068 nM | 37.4 | 1.29 nM | CC[C@H](C)[C@H](NC(=O)C(C)(C)NC(=O)[C@H](CCC(N)=O)NC(=O)[C@@H](NC(=O)[C@H](Cc1ccccc1)NC(=O)[C@H](CC(=O)O)NC(=O)[C@H](CCCCNC(=O)COCCOCCNC(=O)COCCOCCNC(=O)CC[C@H](NC(=O)CC[C@H](NC(=O)CCCCCCCCCCCCCCCCCCC(=O)O)C(=O)O)C(=O)O)NC(=O)[C@H](C)NC(=O)[C@H](C)NC(=O)[C@H](CCCNC(=N)N)NC(=O)[C@H](CO)NC(=O)[C@H](CC(=O)O)NC(=O)[C@H](CC(C)C)NC(=O)[C@](C)(Cc1ccccc1)NC(=O)[C@H](CCCCN)NC(=O)[C@H](CO)NC(=O)[C@@H](NC(=O)[C@H](CC(=O)O)NC(=O)[C@H](CO)NC(=O)[C@@H](NC(=O)[C@](C)(Cc1ccccc1)NC(=O)[C@H](CO)NC(=O)CNC(=O)[C@H](Cc1c[nH]cn1)NC(=O)C(C)(C)NC(=O)[C@@H](N)Cc1c[nH]cn1)[C@@H](C)O)C(C)C)C(C)C)C(=O)N[C@@H](C)C(=O)N[C@@H](CC(N)=O)C(=O)N[C@H](C(=O)NCC(N)=O)[C@@H](C)O [Peptide 234] (H-H[Aib]HGS[αMeF]TSDVSK[αMeF]LDSRAAK([AEEA-AEEA-γGlu-γGlu-C20 diacid])DFVQ[Aib]IANTG-NH2)
2 | 0.0221 nM | 19.2 | 0.215 nM | CC[C@H](C)[C@H](NC(=O)C(C)(C)NC(=O)[C@H](CCC(N)=O)NC(=O)[C@@H](NC(=O)[C@H](Cc1ccccc1)NC(=O)[C@H](CC(=O)O)NC(=O)[C@H](CCCCNC(=O)COCCOCCNC(=O)COCCOCCNC(=O)CC[C@H](NC(=O)CC[C@H](NC(=O)CCCCCCCCCCCCCCCCC(=O)O)C(=O)O)C(=O)O)NC(=O)[C@H](C)NC(=O)[C@H](C)NC(=O)[C@H](CCCNC(=N)N)NC(=O)[C@H](CO)NC(=O)[C@H](CC(=O)O)NC(=O)[C@H](CC(C)C)NC(=O)[C@](C)(Cc1ccccc1)NC(=O)[C@H](CCCCN)NC(=O)[C@H](CO)NC(=O)[C@@H](NC(=O)[C@H](CC(=O)O)NC(=O)[C@H](CO)NC(=O)[C@@H](NC(=O)[C@](C)(Cc1ccccc1)NC(=O)[C@H](CO)NC(=O)CNC(=O)[C@H](Cc1c[nH]cn1)NC(=O)C(C)(C)NC(=O)[C@@H](N)Cc1c[nH]cn1)[C@@H](C)O)C(C)C)C(C)C)C(=O)N[C@@H](C)C(=O)N[C@@H](CC(N)=O)C(=O)N[C@H](C(=O)NCC(N)=O)[C@@H](C)O [Peptide 236] (H-H[Aib]HGS[αMeF]TSDVSK[αMeF]LDSRAAK([AEEA-AEEA-γGlu-γGlu-C18 diacid])DFVQ[Aib]IANTG-NH2)
3 | 0.0267 nM | 22.1 | 0.299 nM | CC[C@H](C)[C@H](NC(=O)C(C)(C)NC(=O)[C@H](CCC(N)=O)NC(=O)[C@@H](NC(=O)[C@H](Cc1ccccc1)NC(=O)[C@H](CC(=O)O)NC(=O)[C@H](CCCCNC(=O)COCCOCCNC(=O)COCCOCCNC(=O)CC[C@H](NC(=O)CC[C@H](NC(=O)CCCCCCCCCCCCCCCCC(=O)O)C(=O)O)C(=O)O)NC(=O)[C@H](C)NC(=O)[C@H](C)NC(=O)[C@H](CCCNC(=N)N)NC(=O)[C@H](CO)NC(=O)[C@H](CC(=O)O)NC(=O)[C@H](CC(C)C)NC(=O)[C@](C)(Cc1ccccc1)NC(=O)[C@H](CCCCN)NC(=O)[C@H](CO)NC(=O)[C@@H](NC(=O)[C@H](CC(=O)O)NC(=O)[C@H](CO)NC(=O)[C@@H](NC(=O)[C@](C)(Cc1ccccc1)NC(=O)[C@H](CO)NC(=O)CNC(=O)[C@H](Cc1c[nH]cn1)NC(=O)C(C)(C)NC(=O)[C@@H](N)Cc1c[nH]cn1)[C@@H](C)O)C(C)C)C(C)C)C(=O)N[C@@H](C)C(=O)N[C@@H](CC(N)=O)C(=O)N[C@H](C(=O)NCC(=O)NCC(N)=O)[C@@H](C)O [Peptide 237] (H-H[Aib]HGS[αMeF]TSDVSK[αMeF]LDSRAAK([AEEA-AEEA-γGlu-γGlu-C18 diacid])DFVQ[Aib]IANTGG-NH2; N-terminus assumed)
4 | 0.155 nM | 12.7 | 0.99 nM | CC[C@H](C)[C@H](NC(=O)[C@H](Cc1c[nH]c2ccccc12)NC(=O)[C@H](CCC(N)=O)NC(=O)[C@@H](NC(=O)[C@](C)(Cc1ccccc1)NC(=O)[C@H](CC(=O)O)NC(=O)[C@H](CCCCNC(=O)COCCOCCNC(=O)COCCOCCNC(=O)CC[C@H](NC(=O)CC[C@H](NC(=O)CCCCCCCCCCCCCCCCCCC(=O)O)C(=O)O)C(=O)O)NC(=O)[C@H](C)NC(=O)[C@H](C)NC(=O)[C@H](CCCNC(=N)N)NC(=O)[C@H](CO)NC(=O)[C@H](CC(=O)O)NC(=O)[C@H](CC(C)C)NC(=O)[C@](C)(Cc1ccccc1)NC(=O)[C@H](CCCCN)NC(=O)[C@H](CO)NC(=O)[C@@H](NC(=O)[C@H](CC(=O)O)NC(=O)[C@H](CO)NC(=O)[C@@H](NC(=O)[C@](C)(Cc1ccccc1)NC(=O)[C@H](CO)NC(=O)CNC(=O)[C@H](Cc1c[nH]cn1)NC(=O)C(C)(C)NC(=O)[C@@H](N)Cc1c[nH]cn1)[C@@H](C)O)C(C)C)C(C)C)C(=O)N[C@@H](C)C(=O)N[C@@H](CC(N)=O)C(=O)N[C@H](C(=O)NCC(N)=O)[C@@H](C)O [Peptide 238] (H-H[Aib]HGS[αMeF]TSDVSK[αMeF]LDSRAAK([AEEA-AEEA-γGlu-γGlu-C20 diacid])D[αMeF]VQWIANTG-NH2)
5 | 0.105 nM | 13.2 | 0.705 nM | CC[C@H](C)[C@H](NC(=O)[C@H](Cc1c[nH]c2ccccc12)NC(=O)[C@H](CCC(N)=O)NC(=O)[C@@H](NC(=O)[C@](C)(Cc1ccccc1)NC(=O)[C@H](CC(=O)O)NC(=O)[C@H](CCCCNC(=O)COCCOCCNC(=O)COCCOCCNC(=O)CC[C@H](NC(=O)CC[C@H](NC(=O)CCCCCCCCCCCCCCCCCCC(=O)O)C(=O)O)C(=O)O)NC(=O)[C@H](C)NC(=O)[C@H](C)NC(=O)[C@H](CCCNC(=N)N)NC(=O)[C@H](CO)NC(=O)[C@H](CC(=O)O)NC(=O)[C@H](CC(C)C)NC(=O)[C@](C)(Cc1ccccc1)NC(=O)[C@H](CCCCN)NC(=O)[C@H](CO)NC(=O)[C@@H](NC(=O)[C@H](CC(=O)O)NC(=O)[C@H](CO)NC(=O)[C@@H](NC(=O)[C@](C)(Cc1ccccc1)NC(=O)[C@H](CO)NC(=O)CNC(=O)[C@H](Cc1c[nH]cn1)NC(=O)C(C)(C)NC(=O)[C@@H](N)Cc1c[nH]cn1)[C@@H](C)O)C(C)C)C(C)C)C(=O)N[C@@H](C)C(=O)N[C@@H](CC(N)=O)C(=O)N[C@H](C(=O)NCC(=O)NCC(N)=O)[C@@H](C)O [Peptide 239] (H-H[Aib]HGS[αMeF]TSDVSK[αMeF]LDSRAAK([AEEA-AEEA-γGlu-γGlu-C20 diacid])D[αMeF]VQWIANTGG-NH2)
6 | 0.0571 nM | 11.5 | 0.332 nM | CC[C@H](C)[C@H](NC(=O)[C@H](Cc1c[nH]c2ccccc12)NC(=O)[C@H](CCC(N)=O)NC(=O)[C@@H](NC(=O)[C@](C)(Cc1ccccc1)NC(=O)[C@H](CC(=O)O)NC(=O)[C@H](CCCCNC(=O)COCCOCCNC(=O)COCCOCCNC(=O)CC[C@H](NC(=O)CC[C@H](NC(=O)CCCCCCCCCCCCCCCCC(=O)O)C(=O)O)C(=O)O)NC(=O)[C@H](C)NC(=O)[C@H](C)NC(=O)[C@H](CCCNC(=N)N)NC(=O)[C@H](CO)NC(=O)[C@H](CC(=O)O)NC(=O)[C@H](CC(C)C)NC(=O)[C@](C)(Cc1ccccc1)NC(=O)[C@H](CCCCN)NC(=O)[C@H](CO)NC(=O)[C@@H](NC(=O)[C@H](CC(=O)O)NC(=O)[C@H](CO)NC(=O)[C@@H](NC(=O)[C@](C)(Cc1ccccc1)NC(=O)[C@H](CO)NC(=O)CNC(=O)[C@H](Cc1c[nH]cn1)NC(=O)C(C)(C)NC(=O)[C@@H](N)Cc1c[nH]cn1)[C@@H](C)O)C(C)C)C(C)C)C(=O)N[C@@H](C)C(=O)N[C@@H](CC(N)=O)C(=O)N[C@H](C(=O)NCC(N)=O)[C@@H](C)O [Peptide 240] (H-H[Aib]HGS[αMeF]TSDVSK[αMeF]LDSRAAK([AEEA-AEEA-γGlu-γGlu-C18 diacid])D[αMeF]VQWIANTG-NH2)
7 | 0.0358 nM | 9.7 | 0.175 nM | CC[C@H](C)[C@H](NC(=O)[C@H](Cc1c[nH]c2ccccc12)NC(=O)[C@H](CCC(N)=O)NC(=O)[C@@H](NC(=O)[C@](C)(Cc1ccccc1)NC(=O)[C@H](CC(=O)O)NC(=O)[C@H](CCCCNC(=O)COCCOCCNC(=O)COCCOCCNC(=O)CC[C@H](NC(=O)CC[C@H](NC(=O)CCCCCCCCCCCCCCCCC(=O)O)C(=O)O)C(=O)O)NC(=O)[C@H](C)NC(=O)[C@H](C)NC(=O)[C@H](CCCNC(=N)N)NC(=O)[C@H](CO)NC(=O)[C@H](CC(=O)O)NC(=O)[C@H](CC(C)C)NC(=O)[C@](C)(Cc1ccccc1)NC(=O)[C@H](CCCCN)NC(=O)[C@H](CO)NC(=O)[C@@H](NC(=O)[C@H](CC(=O)O)NC(=O)[C@H](CO)NC(=O)[C@@H](NC(=O)[C@](C)(Cc1ccccc1)NC(=O)[C@H](CO)NC(=O)CNC(=O)[C@H](Cc1c[nH]cn1)NC(=O)C(C)(C)NC(=O)[C@@H](N)Cc1c[nH]cn1)[C@@H](C)O)C(C)C)C(C)C)C(=O)N[C@@H](C)C(=O)N[C@@H](CC(N)=O)C(=O)N[C@H](C(=O)NCC(=O)NCC(N)=O)[C@@H](C)O [Peptide 241] (H-H[Aib]HGS[αMeF]TSDVSK[αMeF]LDSRAAK([AEEA-AEEA-γGlu-γGlu-C18 diacid])D[αMeF]VQWIANTGG-NH2; N-terminus assumed)
